Experiments:
[1] = Compound stability in human liver microsomes; assay type: in vitro ADME; conditions: for half-life at 5 μM / CLint scaled at 5 μM: pH 7.4; for half-life at 5 μM: read-out: Human T1/2; for CLint scaled at 5 μM: human liver microsomes, in vivo CLint extrapolated
Method: (§1) Human or rat liver microsomes incubations were conducted in duplicate in polypropylene tubes. The typical incubation mixtures consisted of human or rat liver microsomes (0.5 mg protein/mL), compounds of interest (5 μM) and NADPH (1.0 mM) in a total volume of 200 μL potassium phosphate buffer (PBS, 100 mM, pH 7.4). Compounds were dissolved in DMSO and diluted with PBS such that the final concentration of DMSO was 0.05%. The enzymatic reactions were commenced with the addition of […] after a 3-min preincubation and incubated in a water bath open to the air at 37° C. Reactions were terminated at various time points (0, 5, 10, 15, 30, 60 min) by adding equal volume of ice-cold acetonitrile. The samples were stored at […] until LC/MS/MS assays.
(§2) The concentrations of compounds in the incubation mixtures of human or rat liver microsomes were determined by a LC/MS/MS method. The ranges of the linearity in the concentration range were determined for each tested compounds.
(§3) A parallel incubation was performed using denatured microsomes as the negative control, and reactions were terminated at various time points (0, 15, 60 min) after incubation at 37° C.
(§4) Dextromethorphan (70 μM) was selected as the positive control, and reactions were terminated at various time points (0, 5, 10, 15, 30, 60 min) after incubation at 37° C. Both positive and negative control samples were included in each assay to ensure the integrity of the microsomal incubation system.
(§5) The concentrations of compounds in human or rat liver microsome incubations were plotted as a percentage of the relevant zero time point control for each reaction. The in vivo CLint were extrapolated (ref.: Naritomi, Y.; Terashita, S.; Kimura, S.; Suzuki, A.; Kagayama, A.; and Sugiyama, Y.; Prediction of human hepatic clearance from in vivo animal experiments and in vitro metabolic studies with liver microsomes from animals and humans. Drug Metab. Dispos., 2001, 29: 1316-1324).

[2] = Compound stability in rat liver microsomes; assay type: in vitro ADME; conditions: pH 7.4; for half-life at 5 μM: rat liver microsomes 0.5 mg protein/mL, compound 5 μM, NADPH 1.0 mM, 37° C., read-out: Rat T1/2; for CLint scaled at 5 μM: rat liver microsomes, in vivo CLint extrapolated
Method: as §1, §2, §3, §4, §5

[3] = Pharmacokinetics after intravenous and oral administration in rats; assay type: in vivo, rat; conditions: iv dosing, 1 mg/kg; for AUC(0-t) / half-life / Vd: rat, plasma; for Vd: read-out: Vss
Method: The compounds disclosed herein are assessed in pharmacokinetic studies in mice, rats, dogs or monkeys. The compounds are administered as a water solution, 2% HPMC+1% TWEEN®80 in water solution, 5% DMSO+5% solutol in saline, 4% MC suspension or capsule. For the intravenous administration, the animals are generally given at 1 or 2 mg/kg dose. For the oral (p.o.) dosing, mice and rats are generally given 5 or 10 mg/kg dose, and dogs and monkeys are generally given 10 mg/kg dose. The blood samples (0.3 mL) are drawn at 0.25, 0.5, 1.0, 2.0, 3.0, 4.0, 6.0, 8.0, 12 and 24 h time points or 0.083, 0.25, 0.5, 1.0, 2.0, 4.0, 6.0, 8.0 and 24 h time points and centrifuged at 3,000 or 4000 rpm for 2 to 10 min. The plasma solutions are collected, and stored at −20° C. or −70° C. until analyzed by LC/MS/MS as described above.

[4] = biological target: JAK1 (h) (Homo sapiens (Human), UniProt P23458); assay: JAK1 (h) kinase assay; assay type: biochemical
JAK1 (h), sequence (P23458 whole entry): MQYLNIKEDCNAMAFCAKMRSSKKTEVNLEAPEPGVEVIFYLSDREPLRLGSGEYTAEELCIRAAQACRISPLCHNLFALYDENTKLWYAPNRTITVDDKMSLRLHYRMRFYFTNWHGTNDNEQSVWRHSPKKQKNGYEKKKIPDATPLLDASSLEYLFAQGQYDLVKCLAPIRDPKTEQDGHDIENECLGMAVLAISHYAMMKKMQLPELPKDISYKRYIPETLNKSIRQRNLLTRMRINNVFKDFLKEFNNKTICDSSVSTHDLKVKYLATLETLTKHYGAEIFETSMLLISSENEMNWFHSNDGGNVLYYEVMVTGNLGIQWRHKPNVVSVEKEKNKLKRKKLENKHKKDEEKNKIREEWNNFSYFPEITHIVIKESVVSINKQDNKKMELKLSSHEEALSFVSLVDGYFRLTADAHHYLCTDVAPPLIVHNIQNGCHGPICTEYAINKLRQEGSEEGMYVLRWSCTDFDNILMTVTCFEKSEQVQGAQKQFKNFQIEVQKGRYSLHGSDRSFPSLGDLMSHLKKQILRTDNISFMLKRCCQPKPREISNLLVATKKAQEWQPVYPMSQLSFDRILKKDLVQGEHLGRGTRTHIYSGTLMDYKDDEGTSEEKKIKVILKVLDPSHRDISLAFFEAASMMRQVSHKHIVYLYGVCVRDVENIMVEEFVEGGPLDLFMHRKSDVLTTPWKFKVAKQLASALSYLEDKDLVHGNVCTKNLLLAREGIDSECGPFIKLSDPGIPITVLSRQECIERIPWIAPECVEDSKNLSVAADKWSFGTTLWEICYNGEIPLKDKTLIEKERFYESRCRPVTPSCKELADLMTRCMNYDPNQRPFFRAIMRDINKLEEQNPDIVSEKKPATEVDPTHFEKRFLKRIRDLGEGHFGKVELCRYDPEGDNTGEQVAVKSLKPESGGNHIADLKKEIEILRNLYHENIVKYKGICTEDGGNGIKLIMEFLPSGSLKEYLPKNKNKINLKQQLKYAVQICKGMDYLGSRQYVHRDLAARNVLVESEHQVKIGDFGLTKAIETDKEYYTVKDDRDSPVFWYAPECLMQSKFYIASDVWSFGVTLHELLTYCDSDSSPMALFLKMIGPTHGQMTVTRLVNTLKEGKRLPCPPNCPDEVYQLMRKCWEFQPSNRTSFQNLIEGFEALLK
Method: (§6) Kinase assays can be performed by measurement of incorporation of γ-^33P ATP into immobilized myelin basic protein (MBP). High binding white 384 well plates (Greiner) are coated with MBP (Sigma #M-1891) by incubation of 60 μL/well of 20 μg/mL MBP in Tris-buffered saline (TBS; 50 mM Tris pH 8.0, 138 mM NaCl, 2.7 mM KCl) for 24 h at 4° C. Plates are washed 3× with 100 μL TBS. Kinase reactions are carried out in a total volume of 34 μL in kinase buffer (5 mM Hepes pH 7.6, 15 mM NaCl, 0.01% bovine gamma globulin (Sigma #I-5506), 10 mM MgCl2, 1 mM DTT, 0.02% TritonX-100). Compound dilutions are performed in DMSO and added to assay wells to a final DMSO concentration of 1%. Each data point is measured in duplicate, and at least two duplicate assays are performed for each individual compound determination. Enzyme is added to final concentrations of 10 nM or 20 nM, for example. A mixture of unlabeled ATP and γ-^33P ATP is added to start the reaction (2×10^6 cpm of γ-^33P ATP per well (3000 Ci/mmole) and 10 μM unlabeled ATP, typically. The reactions are carried out for 1 h at room temperature with shaking Plates are washed 7× with TBS, followed by the addition of 50 μL/well scintillation fluid (Wallac). Plates are read using a Wallac Trilux counter. This is only one format of such assays; various other formats are possible, as known to one skilled in the art.
The above assay procedure can be used to determine the IC50 for inhibition and/or the inhibition constant, Ki. The IC50 is defined as the concentration of compound required to reduce the enzyme activity by 50% under the condition of the assay. The IC50 value is estimated by preparing a 10 point curve using a ½ log dilution series (for example, a typical curve may be prepared using the following compound concentrations: 3 μM, 1 μM, 0.3 μM, 0.1 μM, 0.03 μM, 0.01 μM, 0.003 μM, 0.001 μM, 0.0003 μM, and 0 μM).
(§7) The kinase assays described herein were performed at Millipore UK Ltd, Dundee Technology Park, Dundee DD2 1SW, UK.

[5] = biological target: JAK2 (h) (Homo sapiens (Human), UniProt O60674); assay: JAK2 (h) kinase assay; assay type: biochemical
JAK2 (h), sequence (O60674 whole entry): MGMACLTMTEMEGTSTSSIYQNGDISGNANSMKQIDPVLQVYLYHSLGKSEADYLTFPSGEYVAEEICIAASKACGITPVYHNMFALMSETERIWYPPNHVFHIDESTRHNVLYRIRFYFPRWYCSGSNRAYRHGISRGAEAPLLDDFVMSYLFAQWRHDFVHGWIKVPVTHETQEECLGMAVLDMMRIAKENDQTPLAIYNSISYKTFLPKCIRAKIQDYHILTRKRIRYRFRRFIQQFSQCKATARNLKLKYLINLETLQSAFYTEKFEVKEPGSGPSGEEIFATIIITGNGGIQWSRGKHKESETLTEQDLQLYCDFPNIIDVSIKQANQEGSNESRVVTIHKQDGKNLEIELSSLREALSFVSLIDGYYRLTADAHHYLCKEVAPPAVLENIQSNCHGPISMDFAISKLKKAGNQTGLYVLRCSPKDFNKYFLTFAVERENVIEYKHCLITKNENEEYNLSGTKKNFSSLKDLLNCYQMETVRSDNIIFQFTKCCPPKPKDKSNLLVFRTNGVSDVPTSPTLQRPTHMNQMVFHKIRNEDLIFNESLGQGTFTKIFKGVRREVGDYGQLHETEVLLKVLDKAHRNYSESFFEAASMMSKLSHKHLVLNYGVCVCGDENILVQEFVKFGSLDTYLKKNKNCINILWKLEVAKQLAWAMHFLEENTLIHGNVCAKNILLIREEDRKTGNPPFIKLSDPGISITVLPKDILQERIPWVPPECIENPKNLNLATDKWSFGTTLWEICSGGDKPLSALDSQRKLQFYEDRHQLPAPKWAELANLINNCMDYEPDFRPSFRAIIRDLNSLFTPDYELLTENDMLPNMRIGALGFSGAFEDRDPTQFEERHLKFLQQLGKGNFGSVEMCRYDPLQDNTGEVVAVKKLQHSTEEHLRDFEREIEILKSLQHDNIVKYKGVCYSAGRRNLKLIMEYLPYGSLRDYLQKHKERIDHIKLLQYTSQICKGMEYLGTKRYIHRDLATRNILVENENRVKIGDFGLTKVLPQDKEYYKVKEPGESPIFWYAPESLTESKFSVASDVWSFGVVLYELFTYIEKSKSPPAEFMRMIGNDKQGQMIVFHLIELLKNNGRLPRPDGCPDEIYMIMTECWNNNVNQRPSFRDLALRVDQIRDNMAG
Method: as §6, with “art. […]” for “art.”

[6] = biological target: Aurora-B (h) (Homo sapiens (Human), UniProt Q96GD4); assay: Aurora-B (h) kinase assay; assay type: biochemical
Aurora-B (h), sequence (Q96GD4 whole entry): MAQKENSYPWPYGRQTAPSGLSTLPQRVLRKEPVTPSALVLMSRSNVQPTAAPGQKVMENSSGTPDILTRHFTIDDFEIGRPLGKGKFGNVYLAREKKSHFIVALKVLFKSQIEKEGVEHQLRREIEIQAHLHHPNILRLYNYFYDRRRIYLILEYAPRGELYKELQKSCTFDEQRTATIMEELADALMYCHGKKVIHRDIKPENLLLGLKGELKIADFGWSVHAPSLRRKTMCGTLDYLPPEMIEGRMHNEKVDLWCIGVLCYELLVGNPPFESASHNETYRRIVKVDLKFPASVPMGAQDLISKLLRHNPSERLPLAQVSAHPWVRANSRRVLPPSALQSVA
Method: as §6, with “art. […]” for “art.”

[7] = biological target: FLT3 (h) (Homo sapiens (Human), UniProt P36888); assay: FLT3 (h) kinase assay; assay type: biochemical
FLT3 (h), sequence (P36888 27-993): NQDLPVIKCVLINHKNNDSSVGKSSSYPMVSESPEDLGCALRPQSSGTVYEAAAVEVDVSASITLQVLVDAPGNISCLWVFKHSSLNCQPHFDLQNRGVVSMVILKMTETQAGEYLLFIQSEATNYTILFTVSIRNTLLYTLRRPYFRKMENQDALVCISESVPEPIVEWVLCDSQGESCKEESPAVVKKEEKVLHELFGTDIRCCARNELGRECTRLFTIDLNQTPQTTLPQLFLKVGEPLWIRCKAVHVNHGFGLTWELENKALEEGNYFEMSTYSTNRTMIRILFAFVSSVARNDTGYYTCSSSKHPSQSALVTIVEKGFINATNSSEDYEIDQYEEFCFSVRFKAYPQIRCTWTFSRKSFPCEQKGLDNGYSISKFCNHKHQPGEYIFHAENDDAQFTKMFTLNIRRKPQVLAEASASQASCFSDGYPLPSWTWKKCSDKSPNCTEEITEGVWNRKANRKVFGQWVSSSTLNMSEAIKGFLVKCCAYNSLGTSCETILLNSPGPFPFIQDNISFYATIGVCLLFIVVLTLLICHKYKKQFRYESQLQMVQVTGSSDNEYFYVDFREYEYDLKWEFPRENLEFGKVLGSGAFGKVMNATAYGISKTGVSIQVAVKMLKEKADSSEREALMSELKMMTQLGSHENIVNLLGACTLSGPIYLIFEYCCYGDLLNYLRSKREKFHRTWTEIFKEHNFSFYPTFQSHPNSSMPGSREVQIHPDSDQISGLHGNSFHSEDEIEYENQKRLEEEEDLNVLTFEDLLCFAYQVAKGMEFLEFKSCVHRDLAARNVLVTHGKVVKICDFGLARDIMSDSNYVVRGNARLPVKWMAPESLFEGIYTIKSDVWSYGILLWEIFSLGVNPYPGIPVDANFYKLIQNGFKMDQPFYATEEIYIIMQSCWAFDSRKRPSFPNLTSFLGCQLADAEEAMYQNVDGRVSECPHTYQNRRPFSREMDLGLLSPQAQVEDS
Method: as §6, with “art. […]” for “art.”

[8] = biological target: Aurora-A (h) (Homo sapiens (Human), UniProt O14965); assay: Aurora-A (h) kinase assay; assay type: biochemical
Aurora-A (h), sequence (O14965 whole entry): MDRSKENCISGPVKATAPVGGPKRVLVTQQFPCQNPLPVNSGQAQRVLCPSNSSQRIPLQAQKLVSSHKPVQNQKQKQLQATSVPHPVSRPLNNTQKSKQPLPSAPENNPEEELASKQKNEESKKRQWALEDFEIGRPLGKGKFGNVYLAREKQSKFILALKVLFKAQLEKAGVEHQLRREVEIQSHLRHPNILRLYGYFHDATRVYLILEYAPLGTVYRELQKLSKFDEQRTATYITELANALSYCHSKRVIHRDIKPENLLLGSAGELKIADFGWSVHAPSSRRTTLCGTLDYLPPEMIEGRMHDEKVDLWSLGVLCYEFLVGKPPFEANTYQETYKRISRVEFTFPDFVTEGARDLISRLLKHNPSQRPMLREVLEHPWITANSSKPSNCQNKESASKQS
Method: Kinase assays can be performed by measurement of incorporation of γ-^33P ATP into immobilized myelin basic protein (MBP). […] Plates are washed 3× with 100 μL TBS. Kinase reactions are carried out in a total volume of 34 μL in kinase buffer (5 mM Hepes pH 7.6, 15 mM NaCl, 0.01% bovine gamma globulin (Sigma #I-5506), 10 mM MgCl2, 1 mM DTT, 0.02% TritonX-100). Compound dilutions are performed in DMSO and added to assay wells to a final DMSO concentration of 1%. Each data point is measured in duplicate, and at least two duplicate assays are performed for each individual compound determination. Enzyme is added to final concentrations of 10 nM or 20 nM, for example.
The above assay procedure can be used to determine the IC50 for inhibition and/or the inhibition constant, Ki. The IC50 is defined as the concentration of compound required to reduce the enzyme activity by 50% under the condition of the assay.
as §7

[9] = human liver microsomes 0.5 mg protein/mL, compound 5 μM, NADPH 1.0 mM, 37° C.

| half-life at 5 μM [1, 9] | CLint scaled at 5 μM [1] | half-life at 5 μM [2] | CLint scaled at 5 μM [2] | Cl/F [3] | AUC(0-t) [3] | half-life [3] | Vd [3] | IC50 [4] | Human T1/2 [1, 9] | IC50 [6] | IC50 [7] | IC50 [8] | Structure (SMILES) | IC50 [5] |
| --- | --- | --- | --- | --- | --- | --- | --- | --- | --- | --- | --- | --- | --- | --- |
| 1.52 h | 19 mL/min/kg | 1.48 h | 28 mL/min/kg | 20.8 mL/min/kg | 822 ng·h/mL | 0.83 h | 1.39 L/kg | – | – | – | – | – | COC1COC2C(Nc3nc(Nc4cnn(C)c4)ncc3Cl)COC12 (stereo not drawn) [Ex. 6, 5-chloro-N^4-(6-methoxyhexahydrofuro[3,2-b]furan-3-yl)-N^2-(1-methyl-1H-pyrazol-4-yl)pyrimidine-2,4-diamine] | – |
| – | – | – | – | – | – | – | – | – | – | – | – | 99 nM | Cn1cc(Nc2ncc(Cl)c(NC3COC4C(N)COC34)n2)cn1 (stereo not drawn) [Ex. 7, N^4-(6-aminohexahydrofuro[3,2-b]furan-3-yl)-5-chloro-N^2-(1-methyl-1H-pyrazol-4-yl)pyrimidine-2,4-diamine] | – |
| 6.28 h | 4.61 mL/min/kg | 1.64 h | 25.2 mL/min/kg | 63.7 mL/min/kg | 259 ng·h/mL | 0.34 h | 1.39 L/kg | 31 nM | – | 31 nM | 11 nM | 51 nM | Cn1cc(Nc2ncc(Cl)c(NC3COC4C(NS(C)(=O)=O)COC34)n2)cn1 (stereo not drawn) [Ex. 8, N-(6-((5-chloro-2-((1-methyl-1H-pyrazol-4-yl)amino)pyrimidin-4-yl)amino)hexahydrofuro[3,2-b]furan-3-yl)methanesulfonamide] | – |

Continued, compound first:

| Structure (SMILES) | half-life at 5 μM [1, 9] | CLint scaled at 5 μM [1] | half-life at 5 μM [2] | CLint scaled at 5 μM [2] | Cl/F [3] | AUC(0-t) [3] | half-life [3] | Vd [3] | IC50 [4] | Human T1/2 [1, 9] | IC50 [6] | IC50 [7] | IC50 [8] | IC50 [5] |
| --- | --- | --- | --- | --- | --- | --- | --- | --- | --- | --- | --- | --- | --- | --- |
| CN(c1nc(Nc2cnn(C)c2)ncc1Cl)C1COC2C(O)COC21 (stereo not drawn) [Ex. 1, 6-((5-chloro-2-((l-methyl-1H-pyrazol-4-yl)amino)pyrimidin-4-yl)(methyl)amino)hexahydrofuro[3,2-b]furan-3-ol] | 32.8 h | 0.88 mL/min/kg | 20.6 h | 2.01 mL/min/kg | 18.2 mL/min/kg | 929 ng·h/mL | 1.2 h | 1.22 L/kg | 261 nM | – | – | – | – | 689 nM |
| Cc1cnc(Nc2cnn(C)c2)nc1NC1COC2C(O)COC12 (stereo not drawn) [Ex. 3, 6-((5-methyl-2-((1-methyl-1H-pyrazol-4-yl)amino)pyrimidin-4-yl)amino) hexahydrofuro[3,2-b]furan-3-ol] | – | – | – | – | – | – | – | – | 78 nM | – | – | – | – | – |
| Cn1cc(Nc2ncc(Cl)c(NC3COC4C(OCCO)COC34)n2)cn1 (stereo not drawn) [Ex. 5, 2-((6-((5-chloro-2-((l-methyl-1H-pyrazol-4-yl)amino)pyrimidin-4-yl)amino)hexahydrofuro[3,2-b]furan-3-yl)oxy)ethanol] | – | – | 12.1 h | 3.42 mL/min/kg | 25 mL/min/kg | 621 ng·h/mL | 2.93 h | 3.02 L/kg | 61 nM | ∞ | 50 nM | 57 nM | – | – |
